How the values were obtained:
[1] = target: Glucagon-like peptide 1 receptor (Homo sapiens, UniProt P43220); assay: Agonist activity at N-terminal hemagglutinin-tagged human GLP-1R expressed in CHO cells co-transfected with pcDNA3.0 assessed as increase in intracellular cAMP accumulation incubated for 30 mins by microplate reader analysis; format: functional, cell-based
[2] = Fraction of the dose absorbed in Sprague-Dawley rat at 5 mg/kg, po measured up to 24 hrs by LC-MS/MS analysis; format: ADME, organism-based; details: in vivo, read-out: Fabs
[3] = Cmax in Sprague-Dawley rat at 5 mg/kg, po measured up to 24 hrs by LC-MS/MS analysis; format: ADME, organism-based; details: in vivo
[4] = AUC (0 to infinity) in Sprague-Dawley rat at 5 mg/kg, po measured up to 24 hrs by LC-MS/MS analysis; format: ADME, organism-based; details: in vivo
[5] = Half life in Sprague-Dawley rat at 5 mg/kg, po measured up to 24 hrs by LC-MS/MS analysis; format: ADME, organism-based; details: in vivo
[6] = Observed apparent oral clearance in Sprague-Dawley rat at 5 mg/kg, po measured up to 24 hrs by LC-MS/MS analysis; format: ADME, organism-based; details: in vivo
[7] = in vivo; details: Sprague-Dawley, rat, po, 5 mg/kg
[8] = target: hERG (KCNH2) (Homo sapiens, UniProt Q12809); assay: Inhibition of hERG at 10 uM at -80 mV holding potential by whole-cell patch clamp analysis relative to control; format: toxicity
hERG (KCNH2), sequence (Q12809 whole entry): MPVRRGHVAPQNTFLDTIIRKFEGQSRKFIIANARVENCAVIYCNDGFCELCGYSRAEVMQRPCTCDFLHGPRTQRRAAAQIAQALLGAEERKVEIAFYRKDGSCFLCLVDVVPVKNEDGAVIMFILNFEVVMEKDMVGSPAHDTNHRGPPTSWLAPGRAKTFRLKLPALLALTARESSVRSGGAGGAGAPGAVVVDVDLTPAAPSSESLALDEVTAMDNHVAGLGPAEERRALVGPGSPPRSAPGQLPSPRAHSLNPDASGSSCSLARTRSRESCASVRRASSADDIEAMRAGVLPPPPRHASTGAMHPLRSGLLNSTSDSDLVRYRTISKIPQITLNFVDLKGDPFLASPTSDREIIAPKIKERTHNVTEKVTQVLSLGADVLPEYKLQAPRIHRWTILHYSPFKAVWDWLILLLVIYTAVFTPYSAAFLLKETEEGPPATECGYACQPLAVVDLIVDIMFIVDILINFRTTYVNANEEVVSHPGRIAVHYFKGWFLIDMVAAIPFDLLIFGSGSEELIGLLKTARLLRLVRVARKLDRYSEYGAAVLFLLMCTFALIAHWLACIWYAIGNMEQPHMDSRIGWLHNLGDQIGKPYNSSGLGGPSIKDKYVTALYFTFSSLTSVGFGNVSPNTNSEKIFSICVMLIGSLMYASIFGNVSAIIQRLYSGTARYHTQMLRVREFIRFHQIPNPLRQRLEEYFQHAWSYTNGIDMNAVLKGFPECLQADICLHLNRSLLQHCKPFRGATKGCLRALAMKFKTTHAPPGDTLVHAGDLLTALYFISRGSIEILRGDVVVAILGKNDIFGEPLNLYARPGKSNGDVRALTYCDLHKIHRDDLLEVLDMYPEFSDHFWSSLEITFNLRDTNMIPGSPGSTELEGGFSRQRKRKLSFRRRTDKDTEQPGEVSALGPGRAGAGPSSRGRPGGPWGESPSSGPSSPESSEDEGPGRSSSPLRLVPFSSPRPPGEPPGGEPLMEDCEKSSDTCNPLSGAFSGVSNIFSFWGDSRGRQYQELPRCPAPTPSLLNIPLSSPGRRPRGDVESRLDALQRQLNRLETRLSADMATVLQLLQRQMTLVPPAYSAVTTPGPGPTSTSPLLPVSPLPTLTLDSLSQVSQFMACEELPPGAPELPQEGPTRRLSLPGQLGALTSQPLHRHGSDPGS

Glucagon-like peptide 1 receptor, sequence (P43220 whole entry): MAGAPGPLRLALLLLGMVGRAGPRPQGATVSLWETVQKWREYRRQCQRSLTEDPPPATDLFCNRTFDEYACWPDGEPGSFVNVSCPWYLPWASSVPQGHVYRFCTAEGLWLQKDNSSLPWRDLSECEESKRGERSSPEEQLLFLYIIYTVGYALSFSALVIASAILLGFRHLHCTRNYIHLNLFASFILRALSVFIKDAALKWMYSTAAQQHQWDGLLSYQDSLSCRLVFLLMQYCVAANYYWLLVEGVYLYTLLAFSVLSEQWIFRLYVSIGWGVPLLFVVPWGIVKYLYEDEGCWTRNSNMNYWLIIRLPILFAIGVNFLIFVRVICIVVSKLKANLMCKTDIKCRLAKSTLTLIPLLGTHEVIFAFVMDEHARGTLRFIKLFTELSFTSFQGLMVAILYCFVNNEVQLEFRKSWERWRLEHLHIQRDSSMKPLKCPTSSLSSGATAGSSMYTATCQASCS

Row | SMILES | EC50 [1] [nM] | other results
1 | O=C(O)c1cc2c(nc(CN3CCC(Oc4cccc(Cc5ccccc5)n4)CC3)n2C[C@@H]2CCO2)s1 | 87.7 | –
2 | O=C(O)c1cc2c(nc(CN3CCC(Oc4cccc(Cc5ccc(Cl)cc5F)n4)CC3)n2C[C@@H]2CCO2)s1 | 3.75 | –
3 | CC1(c2ccc(COc3cccc(C4=CCN(Cc5nc6ccc(C(=O)O)nc6n5C[C@@H]5CCO5)CC4)n3)c(F)c2)CC(F)(F)C1 | 2.91 | –
4 | O=C(O)c1cc2c(nc(CN3CCC(Oc4nccc(Cc5ccc(Cl)cc5)n4)CC3)n2C[C@@H]2CCO2)s1 | 396 | –
5 | Cn1ncc2ccc(Cc3cccc(OC4CCN(Cc5nc6sc(C(=O)O)cc6n5C[C@@H]5CCO5)CC4)n3)c(F)c21 | 77.1 | –
6 | COc1cc2c(Cl)ccc(OCc3cccc(OC4CCN(Cc5nc6ccc(C(=O)O)cc6n5C[C@@H]5CCO5)CC4)n3)c2o1 | 0.2 | –
7 | Cn1ncc2ccc(Cc3cccc(OC4CCN(Cc5nc6c(F)cc(C(=O)O)cc6n5C[C@@H]5CCO5)CC4)n3)c(F)c21 | 0.96 | –
8 | N#Cc1ccc(Cc2cccc(OC3CCN(Cc4nc5sc(C(=O)O)cc5n4C[C@@H]4CCO4)CC3)n2)c2occc12 | 96.8 | –
9 | O=C(O)c1ccc2nc(CN3CCC(Oc4cccc(Cc5ccc6cn[nH]c6c5F)n4)CC3)n(C[C@@H]3CCO3)c2n1 | 46.8 | –
10 | O=C(O)c1cc2c(nc(CN3CCC(Oc4ccnc(Cc5ccc(Cl)cc5)n4)CC3)n2C[C@@H]2CCO2)s1 | 0.79 | –
11 | O=C(O)c1cc2c(nc(CN3CCC(Oc4cccc(COc5ccc(Cl)cc5)n4)CC3)n2C[C@@H]2CCO2)s1 | 0.91 | –
12 | O=C(O)c1ccc2nc(CN3CC=C(c4cccc(OCc5ccc(CC(F)(F)F)cc5F)n4)CC3)n(C[C@@H]3CCO3)c2n1 | 0.13 | –
13 | N#Cc1ccc(OCc2nccc(OC3CCN(Cc4nc5sc(C(=O)O)cc5n4C[C@@H]4CCO4)CC3)n2)c(F)c1 | 0.32 | –
14 | Cc1nn(C)c2c(F)c(Cc3cccc(OC4CCN(Cc5nc6ccc(C(=O)O)nc6n5C[C@@H]5CCO5)CC4)n3)ccc12 | 1.74 | –
15 | O=C(O)c1cc2c(nc(CN3CCC(Oc4cccc(Cc5ccc(Cl)cc5)n4)CC3)n2C[C@@H]2CCO2)s1 | 2.66 | –
16 | COc1cc(C(=O)O)cc2c1nc(CN1CCC(c3cccc(OCc4ccc(C5CC(F)(F)C5)cc4F)n3)CC1)n2C[C@@H]1CCO1 | 0.016 | Fa at 24 h [2]: 1.99%; Cmax [3]: 20.2 ng/mL; AUC(0-inf) [4]: 61.8 ng·h/mL; half-life [5]: 1.5 h; CL/F [6]: 1490 mL/min/kg; Tmax at 24 h [7]: 1.67 h
17 | O=C(O)c1cc(F)c2nc(CN3CC=C(c4cccc(OCc5ccc(CC(F)F)cc5F)n4)CC3)n(C[C@@H]3CCO3)c2c1 | 0.015 | –
18 | O=C(O)c1ccc2nc(CN3CCC(Oc4cccc(COc5ccc6c(Cl)nn(CC(F)F)c6c5F)n4)CC3)n(C[C@@H]3CCO3)c2n1 | 0.32 | –
19 | Cn1nc(Cl)c2ccc(OCc3cccc(OC4CCN(Cc5nc6ccc(C(=O)O)nc6n5C[C@@H]5CCO5)CC4)n3)c(F)c21 | 0.8 | –
20 | O=C(O)c1cc2c(nc(CN3CCC(Oc4cccc(Cc5ccc(-c6ccn(C(F)F)n6)cc5)n4)CC3)n2C[C@@H]2CCO2)s1 | 16.9 | –
21 | O=C(O)c1cc2c(nc(CN3CCC(Oc4cccc(Cc5ccccc5F)n4)CC3)n2C[C@@H]2CCO2)s1 | 81 | –

Row | SMILES | EC50 [1] [nM] | other results
22 | Cn1ccc(-c2ccc(Cc3cccc(OC4CCN(Cc5nc6sc(C(=O)O)cc6n5C[C@@H]5CCO5)CC4)n3)cc2)n1 | 661 | –
23 | O=C(O)c1ccc2nc(CN3CC=C(c4cccc(OCc5ccc(CC(F)F)cc5F)n4)CC3)n(C[C@@H]3CCO3)c2n1 | 0.13 | –
24 | O=C(O)c1ccc2nc(CN3CCC(Oc4cccc(Cc5ccc(Cl)c6c5OCC6)n4)CC3)n(C[C@@H]3CCO3)c2c1 | 0.11 | –
25 | COc1cc(C#N)ccc1OCc1nccc(OC2CCN(Cc3nc4sc(C(=O)O)cc4n3C[C@@H]3CCO3)CC2)n1 | 0.45 | –
26 | O=C(O)c1ccc2nc(CN3CCC(c4cccc(OCc5ccc(CC(F)F)cc5F)n4)CC3)n(C[C@@H]3CCO3)c2c1 | 0.26 | –
27 | O=C(O)c1cc2c(nc(CN3CCC(Oc4cccc(OCc5ccc(Cl)cc5)n4)CC3)n2C[C@@H]2CCO2)s1 | 9.53 | –
28 | O=C(O)c1ccc2nc(CN3CCC(Oc4ccnc(Cc5ccc(Cl)c6ccoc56)n4)CC3)n(C[C@@H]3CCO3)c2n1 | 0.34 | –
29 | O=C(O)c1cc2c(nc(CN3CCC(Oc4cccc(Cc5ccc6cn[nH]c6c5F)n4)CC3)n2C[C@@H]2CCO2)s1 | 176 | –
30 | O=C(O)c1ccc2nc(CN3CCC(c4cccc(OCc5ccc(C6CC(F)(F)C6)cc5F)n4)CC3)n(C[C@@H]3CCO3)c2c1 | 0.088 | –
31 | N#Cc1ccc(OCc2cccc(OC3CCN(Cc4nc5ccc(C(=O)O)cc5n4C[C@@H]4CCO4)CC3)n2)c(OC(F)(F)F)c1 | 0.46 | –
32 | C[C@H]1CN(c2cccc(OCc3ccc(CC(F)F)cc3F)n2)CCN1Cc1nc2c(F)cc(C(=O)O)cc2n1C[C@@H]1CCO1 | 0.07 | –
33 | Cn1ncc2ccc(Cc3cccc(OC4CCN(Cc5nc6sc(C(=O)O)cc6n5C[C@@H]5CCO5)CC4)n3)cc21 | 258 | –
34 | O=C(O)c1ccc2nc(CN3CCC(Oc4cccc(COc5cc(Cl)c6occc6c5)n4)CC3)n(C[C@@H]3CCO3)c2n1 | 3.62 | –
35 | Cn1ncc2ccc(Cc3cccc(OC4CCN(Cc5nc6ccc(C(=O)O)nc6n5C[C@@H]5CCO5)CC4)n3)c(F)c21 | 102 | –
36 | O=C(O)c1cc(F)c2nc(CN3CCN(c4cccc(OCc5ccc(CC(F)F)cc5F)n4)CC3)n(C[C@@H]3CCO3)c2c1 | 0.086 | –
37 | O=C(O)c1cc2c(nc(CN3CCC(Oc4cccc(Cc5ccc6cnn(CC(F)F)c6c5)n4)CC3)n2C[C@@H]2CCO2)s1 | 14.6 | –
38 | CC1(c2ccc(COc3cccc(C4=CCN(Cc5nc6ccc(C(=O)O)cc6n5C[C@@H]5CCO5)CC4)n3)c(F)c2)CC(F)(F)C1 | 6.1 | –
39 | COc1ccc(C(F)(F)F)cc1OCc1nccc(OC2CCN(Cc3nc4sc(C(=O)O)cc4n3C[C@@H]3CCO3)CC2)n1 | 19.4 | –
40 | CC1(c2ccc(COc3cccc(-c4ccc(Cc5nc6ccc(C(=O)O)cc6n5C[C@@H]5CCO5)c(F)c4)n3)c(F)c2)CC(F)(F)C1 | 3.1 | –
41 | O=C(O)c1cc(F)c2nc(CN3CCC(c4cccc(OCc5ccc(CC(F)F)cc5F)n4)CC3)n(C[C@@H]3CCO3)c2c1 | 0.096 | –
42 | O=C(O)c1cc2c(nc(CN3CCC(Oc4cccc(COc5ccc(Cl)cc5F)n4)CC3)n2C[C@@H]2CCO2)s1 | 1.76 | –

Row | SMILES | EC50 [1] [nM] | other results
43 | N#Cc1ccc(Cc2cccc(OC3CCN(Cc4nc5ccc(C(=O)O)nc5n4C[C@@H]4CCO4)CC3)n2)c2occc12 | 7.91 | –
44 | O=C(O)c1ccc2nc(CN3CCC(Oc4cccc(COc5ccc6cn[nH]c6c5)n4)CC3)n(C[C@@H]3CCO3)c2n1 | 0.84 | –
45 | N#Cc1ccc(COc2cccc(OC3CCN(Cc4nc5sc(C(=O)O)cc5n4C[C@@H]4CCO4)CC3)n2)c(F)c1 | 9.83 | –
46 | N#Cc1ccc(Cc2cccc(OC3CCN(Cc4nc5ccc(C(=O)O)cc5n4C[C@@H]4CCO4)CC3)n2)c(F)c1 | 1.14 | –
47 | O=C(O)c1ccc2nc(CN3CCC(Oc4cccc(Cc5ccc(C6COC6)cc5)n4)CC3)n(C[C@@H]3CCO3)c2n1 | 55.7 | –
48 | N#Cc1ccc(Cc2cccc(OC3CCN(Cc4nc5sc(C(=O)O)cc5n4C[C@@H]4CCO4)CC3)n2)cc1 | 5.47 | –
49 | O=C(O)c1cc2c(nc(CN3CCC(Oc4ccnc(COc5ccc(Cl)cc5)n4)CC3)n2C[C@@H]2CCO2)s1 | 3.7 | –
50 | O=C(O)c1ccc2nc(CN3CCC(Oc4cccc(Cc5ccc6cnn(CC(F)F)c6c5F)n4)CC3)n(C[C@@H]3CCO3)c2n1 | 3.36 | –
51 | O=C(O)c1cc(F)c2nc(CN3CC=C(c4cccc(OCc5ccc(CC(F)(F)F)cc5F)n4)CC3)n(C[C@@H]3CCO3)c2c1 | 0.096 | –
52 | O=C(O)c1cc(F)c2nc(CN3CCC(c4cccc(OCc5ccc(CC(F)(F)F)cc5F)n4)CC3)n(C[C@@H]3CCO3)c2c1 | 0.35 | –
53 | COc1ccc(Cc2cccc(OC3CCN(Cc4nc5sc(C(=O)O)cc5n4C[C@@H]4CCO4)CC3)n2)cc1 | 20.4 | –
54 | O=C(O)c1cc2c(nc(CN3CCC(Oc4cccc(Cc5ccc(Cl)c6ccoc56)n4)CC3)n2C[C@@H]2CCO2)s1 | 70 | –
55 | CC1(c2ccc(COc3cccc(-c4ccc(Cc5nc6ccc(C(=O)O)nc6n5C[C@@H]5CCO5)c(F)c4)n3)c(F)c2)CC(F)(F)C1 | 2.64 | –
56 | O=C(O)c1ccc2nc(CN3CCC(Oc4cccc(Cc5ccc(Cl)c6occc56)n4)CC3)n(C[C@@H]3CCO3)c2n1 | 0.35 | –
57 | N#Cc1ccc(Cc2cccc(OC3CCN(Cc4nc5sc(C(=O)O)cc5n4C[C@@H]4CCO4)CC3)n2)c(F)c1 | 9.81 | –
58 | O=C(O)c1ccc2nc(CN3CCC(Oc4cccc(COc5ccc(Cl)c6cc(F)oc56)n4)CC3)n(C[C@@H]3CCO3)c2c1 | 0.21 | –
59 | O=C(O)c1cc2c(nc(CN3CCC(Oc4ccnc(Cc5ccc(Cl)c6ccoc56)n4)CC3)n2C[C@@H]2CCO2)s1 | 1.84 | –
60 | O=C(O)c1cc2c(nc(CN3CCC(Oc4ccnc(COc5ccc(Cl)cc5F)n4)CC3)n2C[C@@H]2CCO2)s1 | 0.2 | –
61 | N#Cc1ccc(OCc2cccc(OC3CCN(Cc4nc5sc(C(=O)O)cc5n4C[C@@H]4CCO4)CC3)n2)c(F)c1 | 0.52 | inhibition at 10 µM [8]: 0.9%
